# Measured values as given in patent US9242009B2, “Compositions and methods to treat neurodegenerative diseases” (The General Hospital Corporation, priority 2012, dated 2016).
# How the values were obtained:
# [1] = test system: murine primary cortical neurons; assay: Oxygen-glucose deprivation (OGD) of murine primary cortical neurons, LDH release; format: cell-based, mice
# Experimental: Primary neuronal cultures were prepared from the cortex of embryonic day 15 C57BL6J mice. In brief, brains were harvested and the hemispheres were dissected under a microscope. The cortical neurons were dissociated in Neurobasal medium (Gibco) with B27 supplement (antioxidant plus, Gibco). The cells were seeded into 24 well plates coated with poly-D-lysine (Becton Dickinson Labware, 2×10^5 cells per well), followed by the medium-change with fresh one on the next day. The half of culture medium was replaced with Neurobasal medium witn B27 supplement (antioxidant minus) every other day, and the cultures were maintained at 37° C. in 95% air/5% CO2 in a humidified incubator. Cells were used for experiments 11 days after seeding.
# OGD for primary cortical neurons was performed with the similar protocol as above (FIG. 3B). Briefly, the culture medium was replaced with deoxygenated Neurobasal medium without glucose, and then placed in the hypoxic chamber for 2.5 hours. After OGD, the medium was replaced with Neurobasal medium with glucose and incubated for 21 hours at 37° C. in 95% air/5% CO2 in a humidified incubator. […]
# A microtiter plate containing cells was centrifuged at 250×g for 10 minutes and the supernatant was used for LDH measurement with LDH Cytotoxicity Detection Kit (Roche). […] Percentage of released LDH was calculated with following formula: {LDH (medium)/LDH (medium+cell)×100}. […]
# [2] = test system: murine primary cortical neurons; assay: Intracellular calcium level [Ca2+]i (Fura-2/AM) with or without glutamate; format: cell-based, mice; settings: 20 μM
# SH-SY5Y = assay: Intracellular GSH levels in SH-SY5Y (HPLC); format: cell-based, Human; settings: 50 μM, 8 hours
# Experimental: Intracellular GSH level of SH-SY5Y was measured using HPLC method as previously reported (Kimura et al. (2009) Antioxidants & Redox Signaling 12, 1-13). Briefly, cells were seeded into 6 cm dishes (5×10^5 cells per dish) and treated with 50 μM H2S donors or memantine with or without 2 mM glutamate for 8 hours, followed by washing with ice-cold PBS. Cells were scraped and transferred to a microfuge tube and sonicated. Some fraction of lysate was used for protein assay. After centrifugation, 75 μl of supernatant, 26 μl of 2-(cyclohexylamino) ethanesulfonic acid (CHES, 0.5 M, PH 8.4), and 4 μl of 50 μM MBB were mixed and incubated at room temperature in dark for 30 minutes. Acetic acid (100 μl, 30% v/v) was added, followed by centrifugation at 15,000×g for 10 min after 5 min incubation of the tube on ice. The supernatant was analyzed using HPLC at wavelength of λex=370 nm and λem=486 nm.
# cleaved caspase-3 = assay: Immunoblot of cleaved caspase-3 in SH-SY5Y after OGD; format: cell-based, Human; settings: 50 μM added 8 hours after end of OGD; 15 hours OGD, 24 hours reoxygenation
# Experimental: OGD for SH-SY5Y was performed by placing cells in a hypoxia chamber ([…] Technologies Inc.) for 15 hours, followed by 24 hours of reoxygenation as previously reported (FIG. 3A) (Serra-Pérez et al. (2008) Journal of Neurochemistry 106, 1237-1247). Briefly, medium was replaced with glucose-free RPMI 1640 with L-glutamine (Cellgro by Mediatech, Inc), deoxygenated with anaerobic gas mixture (93% N2-5% CO2-2% H2) for 30 minutes before use. Cells were then placed in a hypoxia chamber, flushed with anaerobic gas mixture (93% N2-5% CO2-2% H2) and incubated at 37° C. […]
# Protein levels in SH-SY5Y were determined by standard immunoblot techniques using primary antibodies (1:1,000, Cell Signaling Technology Inc., Danvers, Mass.) against cleaved caspase-3, caspase-3, phosphorylated Akt at threonine 308, Akt, phosphorylated ERK1/2 at threonine 202 and tyrosine 204, Erk1/2, β-tubulin and phosphorylated tau protein at serine 202 and threonine 205 (1:250; Thermo scientific, MN1020), tau protein (1:1000; Thermo scientific, MN1010). Bound antibody was detected with a horseradish peroxidase-linked antibody directed against rabbit IgG (1:10,000˜1:25,000; Cell Signaling Technology Inc.), or mouse IgG (1:2,000; GE healthcare, NA931V) and was visualized using chemiluminescence with ECL Advance kit (GE healthcare).
# [3] = test system: phosphorylated Akt at threonine 308; assay: Immunoblot of phosphorylated Akt in SH-SY5Y after OGD; format: cell-based, Human; settings: 50 μM added 8 hours after end of OGD
# [4] = test system: murine primary cortical neurons; assay: Amyloid beta-induced toxicity in murine primary cortical neurons (LDH release, MTT); format: cell-based, mice; settings: 24 hours incubation with Aβ1-42 at 20 μM
# Experimental: FIG. 13A-B is a set of two bar graphs depicting cell viability of murine primary cortical neurons exposed to 20 μM amyloid beta (Aβ) and treated with memantine, ACS48, or S-memantine at 5, 10, or 30 μM. Cell viability was estimated by LDH release assay in the left graph and MTT assay in the right graph.
# mice challenged with LPS = assay: LPS-induced cognitive impairment, Morris water-maze
structure (smiles),measurement,setting,value
"C[C@]12C[C@@H]3C[C@](C)(C1)C[C@@](NC(=O)c1ccc(-c4cssc4=S)cc1)(C3)C2 [S-memantine, N-((1r,3R,5S,7r)-3,5-dimethyladamantan-1-yl)-4-(3-thioxo-3H-1,2-dithiol-4-yl)-benzamide]",Neuroprotective effect after OGD (LDH release),"[1]; 50 μM added 30 minutes after end of OGD, 2.5 hours OGD, 21 hours reoxygenation",more robust neuroprotective effects compared to ACS48 or memantine
same,Cell viability after OGD,[1]; incubation starting at 30 minutes or 2 hours after OGD,improved
same,Glutamate-induced calcium accumulation,[2]; 100 μM glutamate,suppressed calcium accumulation
same,Magnitude of calcium accumulation compared with Na2S or ACS48,[2]; without glutamate,markedly smaller than that induced by Na2S or ACS48
same,Magnitude of increase of GSH levels compared with Na2S or ACS48,SH-SY5Y,greater than with Na2S or ACS48
same,Intracellular GSH levels,SH-SY5Y; with 2 mM glutamate,restored intracellular GSH levels
same,Intracellular GSH levels,SH-SY5Y; without glutamate,increased intracellular GSH levels
same,Caspase-3 activation after OGD,cleaved caspase-3,prevented caspase-3 activation
same,Akt phosphorylation after OGD,[3],did not affect Akt phosphorylation
same,Cell viabilities after Aβ1-42 compared with memantine,[4],improved cell viabilities more markedly than did memantine
same,Cell viabilities after Aβ1-42,"[4]; compound 5, 10 or 30 μM",improved cell viabilities
same,Swimming speed in Morris water-maze test,mice challenged with LPS; 90 μmol/kg i.p.,did not change it
same,Latency until getting platform in Morris water-maze test,"mice challenged with LPS; 90 μmol/kg i.p. 30 min before LPS, 4 hours after LPS-challenge",improved latency
